# Results taken from PubChem BioAssay AID690 (Sanford-Burnham Center for Chemical Genomics, 2007).
# The source made the active and inactive calls. The rule behind the calls is not given here.
# Molecular target: Alkaline phosphatase, placental type (Homo sapiens) (UniProt P05187)
# Experiment: PLAP enzyme inhibitors, biochemical, luminescence, HTS (AID 690)
# Conditions: purified PLAP, luminescent substrate
# Alkaline phosphatase, placental type (Homo sapiens), sequence (P05187 whole entry, looked up): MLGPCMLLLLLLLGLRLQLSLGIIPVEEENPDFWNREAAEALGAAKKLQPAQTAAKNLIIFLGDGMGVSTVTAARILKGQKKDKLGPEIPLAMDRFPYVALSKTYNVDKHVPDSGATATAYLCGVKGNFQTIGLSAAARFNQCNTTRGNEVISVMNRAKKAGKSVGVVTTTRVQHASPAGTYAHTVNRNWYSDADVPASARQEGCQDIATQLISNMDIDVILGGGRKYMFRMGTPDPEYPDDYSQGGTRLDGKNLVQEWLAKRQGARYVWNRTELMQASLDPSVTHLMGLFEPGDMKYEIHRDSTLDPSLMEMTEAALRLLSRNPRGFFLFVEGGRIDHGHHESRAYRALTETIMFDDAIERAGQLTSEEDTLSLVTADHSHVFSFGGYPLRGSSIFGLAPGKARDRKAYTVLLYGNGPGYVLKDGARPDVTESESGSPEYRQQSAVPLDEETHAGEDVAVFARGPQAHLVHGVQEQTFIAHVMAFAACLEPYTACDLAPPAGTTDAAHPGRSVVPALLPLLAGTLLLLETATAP
row,SMILES,IC50
1,COC(=O)c1ccc2c(c1)C(C)(C)C(/C=C/c1ccc(O)cc1)=[N+]2C,10.8 µM
2,CCCCOc1ccc(CSC(=N)N)cc1[N+](=O)[O-],78.3 µM
3,COCCNC(=O)NC1(C(F)(F)F)Oc2ccc(Cl)cc2O1 (stereo not given),12.3 µM
4,Clc1ccc(CSCCc2ccncc2)cc1,5.76 µM
5,CSc1cccc(NC(=O)/C=C/c2ccccc2)c1,75.8 µM
6,O=C1NC(=S)N/C1=C/c1cc([N+](=O)[O-])ccc1O,inactive
7,C/C(=N\Nc1ccc([N+](=O)[O-])cc1)c1cccc(N)c1,51.9 µM
8,N#C/C(=C\c1ccc(O)c(O)c1)S(=O)(=O)c1ccccc1,4.1 µM
9,O=C(CSc1nc2ccccc2c(=O)[nH]1)c1ccc(O)c(O)c1,9.59 µM
10,CCOC(=O)c1c(-n2c(C)cc(C=C3C(=O)NC(=S)NC3=O)c2C)sc2c1CCCC2,63.9 µM
11,CCCCOC(=O)C(C)Nc1n[nH]c(=S)[nH]c1=O (stereo not given),43.3 µM
12,COC(=O)C1=C(O)/C(=C\c2ccc(O)c(OC)c2)N=C1C,28.8 µM
13,O=C(NC1(C(F)(F)F)Oc2ccc(Cl)cc2O1)N1CCC2(CC1)OCCO2 (stereo not given),4.87 µM
14,COc1ccc(-c2nnc(-c3ccc(Br)o3)o2)cc1OC,10.3 µM
15,O=P(O)(O)c1ccccc1OCc1ccccc1,8.43 µM
16,CCOc1cc(/C=C(/C#N)C(=O)Nc2ccc(O)cc2)cc(Br)c1O,48.5 µM
17,O/N=C/c1cc(Cl)ccc1OCc1cccc2ccccc12,42.3 µM
18,C=CCn1c(SCC(=O)c2ccc(O)c(O)c2)nnc1-c1ccccc1OC,1.55 µM
19,CCN1/C(=C\C=C\C2=[N+](CC)c3ccccc3C2(C)C)C(C)(C)c2ccccc21,22 µM
20,COc1cc(/C=C2\N=C3CCCCCN3C2=O)ccc1O,25.6 µM
21,COC(=O)c1cn[nH]c1NC(=S)Nc1ccccc1C,19.3 µM
22,O=C1C2CC=CCC2C(=O)N1c1n[nH]c(-c2ccccc2)n1 (stereo not given),8.77 µM
23,Oc1ccc(C2=Nn3c(nnc3-c3ccco3)SC2)cc1O,21.5 µM
24,CN1/C(=C\C=C2\N=C(c3ccc(F)cc3)OC2=O)C(C)(C)c2ccccc21,35.7 µM
25,CCN1/C(=C/c2ccc3ccccc3[n+]2CC)C=Cc2ccccc21,10.6 µM
26,CN1C(=O)/C(=C2/C=Cc3ccccc3N2CCCS(=O)(=O)O)SC1=S,15.2 µM
27,CN1c2ccccc2C(C)(C)[C@]12C=Cc1cc(O)ccc1O2,43.9 µM

row,SMILES,IC50
1,COc1cc(/C=C(/C(=O)c2cccs2)c2nc3ccccc3[nH]2)cc(OC)c1O,20.4 µM
2,O=C(NCc1cccnc1)NC1(C(F)(F)F)Oc2ccc(Cl)cc2O1 (stereo not given),12.4 µM
3,CCc1ccc(NSc2ccccc2[N+](=O)[O-])cc1,29.2 µM
4,COc1cc(/C=C2/CCC/C(=C\c3cc(O)c(OC)c(Cl)c3)C2=O)cc(Cl)c1O,28.2 µM
5,CC1(C)Cc2c(sc3nc4n(c(=N)c23)CCCCC4)CO1,1.88 µM
6,O=C(CCCn1c(SCC(=O)c2ccc(O)c(O)c2)nc2ccccc2c1=O)NCC1CCCO1 (stereo not given),3.45 µM
7,CCOc1ccccc1OCc1nn2c(-c3ccc(C)cc3)nnc2s1,55.8 µM
8,Cc1nn(-c2ccccc2)c(C)c1/C=N/NC(=O)c1cc(-c2ccccc2)n[nH]1,7.34 µM
9,COCc1[nH]nc2c1C(c1cc(OC)c(O)c(OC)c1)C(C#N)=C(N)O2 (stereo not given),23 µM
10,Cc1[nH]c2ccccc2c1/C=C/c1cc[n+](C)cc1,29.1 µM
11,COC(=O)C(N)Cc1ccc(O)c(O)c1 (stereo not given),10.2 µM
12,CCC1CCc2c(c3ccccc3[nH]c2=O)O1 (stereo not given),14.1 µM
13,CN(C)c1ccc(/C=C/C(=O)c2cccc(Br)c2)cc1,35.5 µM
14,c1ccc(Nc2cccc(Nc3ccccc3)n2)cc1,65.4 µM
15,COc1ccc(-n2nnnc2SCC(=O)c2ccc(O)c(O)c2)cc1,1.13 µM
16,CC(C)C1N=C2c3ccccc3N=C(SCC(=O)c3ccc(O)c(O)c3)N2C1=O (stereo not given),3.11 µM
17,COC(=O)c1ccc2c(c1)C(C)(C)C(/C=C/c1ccccc1O)=[N+]2C,15 µM
18,N#Cc1c(SCC(=O)OCc2ccccc2)nsc1SCC(=O)OCc1ccccc1,62.9 µM
19,CNc1nnc(-c2cc3ccccc3oc2=O)s1,2.85 µM
20,CC(C)N=c1scc(-c2ccco2)n1/N=C/c1ccc(O)c(O)c1,4.97 µM
21,COc1cccc(OCCNc2cc(Cl)ccc2[N+](=O)[O-])c1,60.7 µM
22,CCn1c(SCC(=O)c2ccc(O)c(O)c2)nnc1-c1ccccc1OC,4.36 µM
23,CN(C)c1ccc(/C=C/c2cc[n+](C)cc2)cc1,17.3 µM
24,O=C(Nc1cc(N2CCOCC2)ncn1)NC1(C(F)(F)F)Oc2ccc(Cl)cc2O1 (stereo not given),12.7 µM
25,CN(C)CCNc1ncnc2ccccc12,71.3 µM
26,CC1=NN(Cc2ccccc2)C(=O)/C1=C\c1ccc(N(C)C)cc1,18.3 µM
27,c1ccc(-n2ncc3c2ncn2cnnc32)cc1,2.11 µM

row,SMILES,IC50
1,CCn1c(SCC(=O)c2ccc(O)c(O)c2)nnc1-c1ccccc1,4.25 µM
2,C=CCN1C(=O)NC2(O)C(=O)c3ccccc3C12O (stereo not given),15.8 µM
3,O=c1sc2ccccc2n1COc1ccc(Cl)cc1,99.3 µM
4,Cc1cc([N+](=O)[O-])ccc1NCc1ccc2ccccc2c1,75 µM
5,Cc1ccc(C)c(NC(=S)NC(NC(=O)Cc2cccc3ccccc23)C(Cl)(Cl)Cl)c1 (stereo not given),27.5 µM
6,O=C1Nc2ccc(Br)cc2/C1=N/N=C/C1=C(N2CCOCC2)C(=C\c2ccccc2)/CC1,45.6 µM
7,Cc1cc(C)nc(NN2C(=O)/C(=C/c3ccc(O)cc3)SC2=S)n1,18.8 µM
8,CCN1/C(=C/c2ccc3cccc(C)c3[n+]2CC)Sc2ccccc21,11.9 µM
9,COc1cccc(-c2nnc3n2N=C(c2cccc(Br)c2)CS3)c1,76.1 µM
10,O=C(C[n+]1ccc(C(=O)N/N=C/c2ccc(Br)cc2)cc1)c1ccccc1,34.3 µM
11,CCOC(=O)SC1=N/C(=C\c2ccc(N(C)C)cc2)C(=O)S1,47.4 µM
12,CCCc1[nH]nc2c1C(c1ccc(O)c(OC)c1)C(C#N)=C(N)O2 (stereo not given),11.8 µM
13,Cc1cc2nc(C3CCN(Cc4nnnn4Cc4cccs4)CC3)[nH]c2cc1C,7.67 µM
14,O=c1oc2cc(Cl)ccc2n1CSc1nc2ccccc2s1,85.6 µM
15,CCn1c(CSc2nc3ccccc3s2)nnc1SCC(=O)c1ccc(O)c(O)c1,1.52 µM
16,Oc1ccc(CC2CC3CCN2CC3)cc1O (stereo not given),36 µM
17,c1ccc(CSCCc2ccncc2)cc1,2.01 µM
18,CN1C(=O)/C(=C\c2ccc(N3CCCCC3)o2)C(=O)NC1=S,10.1 µM
19,CC(=O)Oc1cc2oc(=O)cc(C)c2cc1OC(C)=O,6.24 µM
20,Clc1ccc(CSc2nnnn2-c2ccc3c(c2)OCO3)c(Cl)c1,73.3 µM
21,O=C1C2C3C=CC(C3)C2C(=O)N1c1n[nH]c(-c2ccccc2)n1 (stereo not given),7.63 µM
22,O=C1C2C3C=CC(C3)C2C(=O)N1c1n[nH]c(-c2cccnc2)n1 (stereo not given),29.8 µM
23,CC1CCCC/C1=N/Nc1ccc([N+](=O)[O-])cc1[N+](=O)[O-] (stereo not given),7.24 µM
24,Clc1ccc(/C=C/c2nc3ccccc3[nH]2)c(Cl)c1,6.37 µM
25,CN(C)c1ccc(/C=C/C=C2/SC(=S)N(c3ccccc3)C2=O)cc1,9.81 µM
26,O=C(CSc1n[nH]c(-c2ccccc2)n1)c1ccc(O)c(O)c1,11.1 µM
